Measured values from patent US8084499B2, “Modified clay mineral” (Ajinomoto Co., Inc., priority 2006, dated 2011).

Experiment: Emulsion stability (B-type viscometer, 60 rpm viscosity / 6 rpm viscosity)
Conditions: emulsion compositions similar to Example 1, compound of formula (1) with given R1/R2 instead of cocoylarginine ethyl ester
Procedure: A B-type (Brookfield type) viscometer (manufactured by TOKYO KEIKI, DIGITAL VISCOMETER DVL-B) was used. About 100 ml of each emulsion composition was placed in a glass vial container, a rotor was appropriately selected, and the value obtained at a room temperature condition of 25° C., number of rotation of 6 or 60 rpm after 30 seconds was taken as the measurement value at each number of rotation. The measurement value at 60 rpm was divided by the measurement value at 6 rpm, and 0.10 to 0.19 was rated as ⊙, 0.20 to 0.29 was rated as ◯, 0.30 to 0.39 was rated as Δ, and not less than 0.40 was rated as x.
For `CCCCCCCCCCCC(=O)NC(CCCNC(=N)N)C(=O)OCC` (stereo not shown) [lauric acid residue / ethyl group, N-lauroylarginine ethyl ester cation], the “emulsion stability, rating” value was “⊙ (0.10 to 0.19 was rated as ⊙)”. For `CCCCCCCCCCCC(=O)NC(CCCNC(=N)N)C(=O)OCC(C)C` (stereo not shown) [lauric acid residue / isobutyl group, N-lauroylarginine isobutyl ester cation], the “emulsion stability, rating” value was “⊙ (0.10 to 0.19 was rated as ⊙)”. With `CCCCCCCCCCCC(=O)N[C@@H](CCCNC(=N)N)C(=O)OC(C)C` [lauric acid residue / isopropyl group, N-lauroylarginine isopropyl ester cation] the “emulsion stability, rating” value was “⊙ (0.10 to 0.19 was rated as ⊙)”. With `CCCCCCCCCCCC(=O)NC(CCCNC(=N)N)C(=O)OC(C)CC` (stereo not shown) [lauric acid residue / s-butyl group, N-lauroylarginine s-butyl ester cation] the “emulsion stability, rating” value was “⊙ (0.10 to 0.19 was rated as ⊙)”. With `CCCCCCCC/C=C\CCCCCCCC(=O)NC(CCCNC(=N)N)C(=O)OCC` (stereo not shown) [oleic acid residue / ethyl group, N-oleylarginine ethyl ester cation] the “emulsion stability, rating” value was “⊙ (0.10 to 0.19 was rated as ⊙)”. In the case of `CCCCCCCCCCCCCCCC(=O)NC(CCCNC(=N)N)C(=O)OCC` (stereo not shown) [palmitic acid residue / ethyl group, N-palmitoylarginine ethyl ester cation], the “emulsion stability, rating” value is reported as “⊙ (0.10 to 0.19 was rated as ⊙)”. In the case of `CCCCCCCCCCCCCCCCCC(=O)N[C@@H](CCCNC(=N)N)C(=O)OCC` [stearic acid residue / ethyl group, N-stearoylarginine ethyl ester cation], the “emulsion stability, rating” value is reported as “⊙ (0.10 to 0.19 was rated as ⊙)”.
